Here are results for 1 molecule from publication PMC5218480 (PLoS ONE, 2017).

For this test, the system named is MV-4-11 cells. Description: Gene expression microarray analysis (Affymetrix PrimeView) and GSEA. The settings on record: MV-4-11 cells, 48 hours. Also on record: RFU PODN (11730768_x_at) / Fold change /veh PODN (11730768_x_at) / RFU LINC00158 (11744669_a_at) / Fold change /veh LINC00158 (11744669_a_at) / RFU DUSP10 (11751237_a_at) / Fold change /veh DUSP10 (11751237_a_at) / RFU ID3 (11757404_x_at) / Fold change /veh ID3 (11757404_x_at) / RFU PLEKHG5 (11737974_s_at) / Fold change /veh PLEKHG5 (11737974_s_at) / RFU LRRC4B (11730491_at) / Fold change /veh LRRC4B (11730491_at) / RFU GIMAP4 (11747438_a_at) / Fold change /veh GIMAP4 (11747438_a_at) / RFU KRT8 (11758183_x_at) / Fold change /veh KRT8 (11758183_x_at) / RFU CNN1 (11734310_a_at) / Fold change /veh CNN1 (11734310_a_at) / RFU VPS37D (11726825_at) / Fold change /veh VPS37D (11726825_at) / RFU C10orf10 (11716522_x_at) / Fold change /veh C10orf10 (11716522_x_at) / RFU KIR2DL2 /// KIR2DL4 /// KIR2DL5A /// KIR2DL5B /// KIR2DS1 /// KIR2DS2 /// KIR2DS3 /// KIR2DS4 /// KIR3DL3 /// KIR3DL3 /// KIR3DS1 (11738374_at) / Fold change /veh KIR2DL2 /// KIR2DL4 /// KIR2DL5A /// KIR2DL5B /// KIR2DS1 /// KIR2DS2 /// KIR2DS3 /// KIR2DS4 /// KIR3DL3 /// KIR3DL3 /// KIR3DS1 (11738374_at) / RFU C1QL1 (11718748_at) / Fold change /veh C1QL1 (11718748_at) / RFU TMPRSS4 (11747572_a_at) / Fold change /veh TMPRSS4 (11747572_a_at) / RFU HAMP (11756126_x_at) / Fold change /veh HAMP (11756126_x_at) / RFU RNFT2 (11725882_a_at) / Fold change /veh RNFT2 (11725882_a_at) / RFU NR4A2 (11747474_a_at) / Fold change /veh NR4A2 (11747474_a_at) / RFU ABCC12 (11746883_a_at) / Fold change /veh ABCC12 (11746883_a_at) / RFU TMEM136 (11760407_x_at) / Fold change /veh TMEM136 (11760407_x_at) / RFU CLDN22 /// WWC2 (11732394_at) / Fold change /veh CLDN22 /// WWC2 (11732394_at) / RFU HLA-DPB1 (11760878_x_at) / Fold change /veh HLA-DPB1 (11760878_x_at) / RFU SPINT1 (11716480_a_at) / Fold change /veh SPINT1 (11716480_a_at) / RFU GAP43 (11754022_s_at) / Fold change /veh GAP43 (11754022_s_at) / RFU A4GNT (11735810_at) / Fold change /veh A4GNT (11735810_at) / RFU PRB3 (11715151_x_at) / Fold change /veh PRB3 (11715151_x_at) / RFU TUBB4B (11761932_at) / Fold change /veh TUBB4B (11761932_at) / RFU CAPN14 (11732068_a_at) / Fold change /veh CAPN14 (11732068_a_at) / RFU TMCC2 (11721928_a_at) / Fold change /veh TMCC2 (11721928_a_at) / RFU IRGQ (11745062_a_at) / Fold change /veh IRGQ (11745062_a_at) / RFU FAM174B (11720279_a_at) / Fold change /veh FAM174B (11720279_a_at) / RFU TMPRSS4 (11748680_a_at) / Fold change /veh TMPRSS4 (11748680_a_at) / RFU FAM212B (11763350_a_at) / Fold change /veh FAM212B (11763350_a_at) / RFU PLEKHG5 (11743358_a_at) / Fold change /veh PLEKHG5 (11743358_a_at) / RFU ZSCAN30 (11745921_a_at) / Fold change /veh ZSCAN30 (11745921_a_at) / RFU CMKLR1 (11741424_a_at) / Fold change /veh CMKLR1 (11741424_a_at) / RFU LOC101060620 /// MAPK8IP1 (11723275_at) / Fold change /veh LOC101060620 /// MAPK8IP1 (11723275_at) / RFU SPTSSB (11747773_x_at) / Fold change /veh SPTSSB (11747773_x_at) / RFU PRSS12 (11739890_at) / Fold change /veh PRSS12 (11739890_at) / RFU BIN1 (11741810_x_at) / Fold change /veh BIN1 (11741810_x_at) / RFU WNT11 (11732464_a_at) / Fold change /veh WNT11 (11732464_a_at) / RFU C10orf10 (11716521_a_at) / Fold change /veh C10orf10 (11716521_a_at) / RFU C5orf56 (11738089_at) / Fold change /veh C5orf56 (11738089_at) / RFU CYB561 (11721691_x_at) / Fold change /veh CYB561 (11721691_x_at) / RFU ANKRD19P (11752326_a_at) / Fold change /veh ANKRD19P (11752326_a_at) / RFU OR2T12 /// OR2T33 /// OR2T8 (11738714_s_at) / Fold change /veh OR2T12 /// OR2T33 /// OR2T8 (11738714_s_at) / RFU VCAN (11748164_a_at) / Fold change /veh VCAN (11748164_a_at) / RFU JSRP1 (11732532_at) / Fold change /veh JSRP1 (11732532_at) / RFU KRTAP10-11 (11738290_x_at) / Fold change /veh KRTAP10-11 (11738290_x_at) / RFU MYO3A (11730013_a_at) / Fold change /veh MYO3A (11730013_a_at) / RFU EBF3 (11725865_a_at) / Fold change /veh EBF3 (11725865_a_at) / RFU CAMK2N1 (11719241_x_at) / Fold change /veh CAMK2N1 (11719241_x_at) / RFU C5orf56 (11738088_a_at) / Fold change /veh C5orf56 (11738088_a_at) / RFU OLFML3 (11715873_a_at) / Fold change /veh OLFML3 (11715873_a_at) / RFU LOC100653217 /// NTM (11731650_a_at) / Fold change /veh LOC100653217 /// NTM (11731650_a_at) / RFU MAPK11 (11762145_a_at) / Fold change /veh MAPK11 (11762145_a_at) / RFU FIZ1 (11724087_x_at) / Fold change /veh FIZ1 (11724087_x_at) / RFU OASL (11726364_x_at) / Fold change /veh OASL (11726364_x_at) / RFU SOX15 (11748057_x_at) / Fold change /veh SOX15 (11748057_x_at) / RFU CD79A (11719716_a_at) / Fold change /veh CD79A (11719716_a_at) / RFU HIST1H1D (11736915_at) / Fold change /veh HIST1H1D (11736915_at) / RFU CASKIN2 (11723855_a_at) / Fold change /veh CASKIN2 (11723855_a_at) / RFU LOC730098 (11760151_x_at) / Fold change /veh LOC730098 (11760151_x_at) / RFU OR4N2 (11742367_at) / Fold change /veh OR4N2 (11742367_at) / RFU PRRT2 (11749266_a_at) / Fold change /veh PRRT2 (11749266_a_at) / RFU SNX32 (11753110_a_at) / Fold change /veh SNX32 (11753110_a_at) / RFU CDHR5 (11726645_a_at) / Fold change /veh CDHR5 (11726645_a_at) / RFU RCAN1 (11760418_a_at) / Fold change /veh RCAN1 (11760418_a_at) / RFU FAM167A (11723789_a_at) / Fold change /veh FAM167A (11723789_a_at) / RFU FAM26E (11764081_at) / Fold change /veh FAM26E (11764081_at) / RFU ISYNA1 (11749810_s_at) / Fold change /veh ISYNA1 (11749810_s_at) / RFU ACY1 (11761880_at) / Fold change /veh ACY1 (11761880_at) / RFU 11764098_at / Fold change /veh 11764098_at / RFU SAMD14 (11745864_x_at) / Fold change /veh SAMD14 (11745864_x_at) / RFU NPB (11741838_a_at) / Fold change /veh NPB (11741838_a_at) / RFU TMPRSS6 (11731388_a_at) / Fold change /veh TMPRSS6 (11731388_a_at) / RFU KRTAP10-2 (11738614_at) / Fold change /veh KRTAP10-2 (11738614_at) / RFU ARHGAP8 /// PRR5-ARHGAP8 (11727945_x_at) / Fold change /veh ARHGAP8 /// PRR5-ARHGAP8 (11727945_x_at) / RFU KRTAP5-7 /// NADSYN1 (11734609_at) / Fold change /veh KRTAP5-7 /// NADSYN1 (11734609_at) / RFU RASL12 (11751679_a_at) / Fold change /veh RASL12 (11751679_a_at) / RFU CDKN2B (11736163_a_at) / Fold change /veh CDKN2B (11736163_a_at) / RFU PRF1 (11729649_at) / Fold change /veh PRF1 (11729649_at) / RFU, ZNF638 /// ZNF638-IT1 / Fold change vs veh, ZNF638 /// ZNF638-IT1 / RFU, PANK3 / Fold change vs veh, PANK3 / RFU, SH3YL1 / Fold change vs veh, SH3YL1 / RFU, ZEB2 / Fold change vs veh, ZEB2 / RFU, NRIP1 / Fold change vs veh, NRIP1 / RFU, PTTG1IP / Fold change vs veh, PTTG1IP / RFU, CAPN2 / Fold change vs veh, CAPN2 / RFU, MED14 / Fold change vs veh, MED14 / RFU, SNORA58 / Fold change vs veh, SNORA58 / RFU, C1orf63 / Fold change vs veh, C1orf63 / RFU, LRRFIP1 / Fold change vs veh, LRRFIP1 / RFU, NDUFAF7 / Fold change vs veh, NDUFAF7 / RFU, SLC12A2 / Fold change vs veh, SLC12A2 / RFU, IBTK / Fold change vs veh, IBTK / RFU, ESF1 / Fold change vs veh, ESF1 / Fold change vs veh, TMEM50B / RFU, TAOK1 / Fold change vs veh, TAOK1 / RFU, ACBD3 / Fold change vs veh, ACBD3 / RFU, TMA16 / Fold change vs veh, TMA16 / RFU, RWDD3 / Fold change vs veh, RWDD3 / RFU, BCAT1 / Fold change vs veh, BCAT1 / RFU, EDEM3 / Fold change vs veh, EDEM3 / RFU, TMEM33 / Fold change vs veh, TMEM33 / RFU, WDR75 / Fold change vs veh, WDR75 / RFU, AHCTF1 / Fold change vs veh, AHCTF1 / RFU, TFRC / Fold change vs veh, TFRC / RFU, ZDHHC17 / Fold change vs veh, ZDHHC17 / RFU, NOM1 / Fold change vs veh, NOM1 / RFU, ARL8B / Fold change vs veh, ARL8B / RFU, ZBTB11 / Fold change vs veh, ZBTB11 / RFU, TAMM41 / Fold change vs veh, TAMM41 / RFU, KIAA1704 /// LOC100996395 / Fold change vs veh, KIAA1704 /// LOC100996395 / RFU, ING1 / Fold change vs veh, ING1 / RFU, TRMT61B / Fold change vs veh, TRMT61B / RFU, FUBP3 / Fold change vs veh, FUBP3 / RFU, TP53 / Fold change vs veh, TP53 / RFU, TNKS2 / Fold change vs veh, TNKS2 / RFU, ZFP14 / Fold change vs veh, ZFP14 / RFU, ACTR2 / Fold change vs veh, ACTR2 / RFU, PPP3R1 / Fold change vs veh, PPP3R1 / RFU, PIK3R1 / Fold change vs veh, PIK3R1 / RFU, HNRNPA1 / Fold change vs veh, HNRNPA1 / RFU, RNF170 / Fold change vs veh, RNF170 / RFU, ZNF28 / Fold change vs veh, ZNF28 / RFU, RNGTT / Fold change vs veh, RNGTT / RFU, OGT / Fold change vs veh, OGT / RFU, BRD1 / Fold change vs veh, BRD1 / RFU, MARS / Fold change vs veh, MARS / RFU, ZNF655 / Fold change vs veh, ZNF655 / RFU, FAHD1 / Fold change vs veh, FAHD1 / RFU, BDP1 / Fold change vs veh, BDP1 / RFU, LRRCC1 / Fold change vs veh, LRRCC1 / RFU, ARID1A / Fold change vs veh, ARID1A / RFU, ZNF146 / Fold change vs veh, ZNF146 / RFU, ZNF330 / Fold change vs veh, ZNF330 / RFU, GPN3 / Fold change vs veh, GPN3 / RFU, C9orf123 / Fold change vs veh, C9orf123 / RFU, N4BP2L2 / Fold change vs veh, N4BP2L2 / RFU, ARFIP1 / Fold change vs veh, ARFIP1 / RFU, FAM179B / Fold change vs veh, FAM179B / RFU, BCL10 / Fold change vs veh, BCL10 / RFU, UHRF1BP1L / Fold change vs veh, UHRF1BP1L / RFU, BET1 / Fold change vs veh, BET1 / RFU, CNOT2 / Fold change vs veh, CNOT2 / RFU, ZNF268 / Fold change vs veh, ZNF268 / Fold change vs veh, ZNF507 / RFU, DGCR2 / Fold change vs veh, DGCR2 / RFU, WDSUB1 / Fold change vs veh, WDSUB1 / Fold change vs veh, HSP90B1 /// MIR3652 / RFU, ADSS / Fold change vs veh, ADSS / RFU, GK / Fold change vs veh, GK / RFU, ZNF148 / Fold change vs veh, ZNF148 / RFU, TAF9 / Fold change vs veh, TAF9 / RFU, SLC1A5 / Fold change vs veh, SLC1A5 / RFU, SLMO2 / Fold change vs veh, SLMO2 / RFU, ABCC4 / Fold change vs veh, ABCC4 / RFU, LOC101060439 /// RAP1B / Fold change vs veh, LOC101060439 /// RAP1B / RFU, RFX7 / Fold change vs veh, RFX7 / RFU, GTPBP10 / Fold change vs veh, GTPBP10 / RFU, CNEP1R1 / Fold change vs veh, CNEP1R1 / RFU, BIVM-ERCC5 /// ERCC5 / Fold change vs veh, BIVM-ERCC5 /// ERCC5 / RFU, ILF3 / Fold change vs veh, ILF3 / RFU 11762660_at / Fold change /veh 11762660_at / RFU VCAN (11757783_s_at) / Fold change /veh VCAN (11757783_s_at) / RFU DDX43 (11728927_at) / Fold change /veh DDX43 (11728927_at) / RFU KRT8 (11758188_x_at) / Fold change /veh KRT8 (11758188_x_at) / RFU NKD1 (11759106_at) / Fold change /veh NKD1 (11759106_at) / RFU SRD5A1 (11742802_a_at) / Fold change /veh SRD5A1 (11742802_a_at) / RFU TPSAB1 /// TPSB2 (11721975_s_at) / Fold change /veh TPSAB1 /// TPSB2 (11721975_s_at) / RFU GSTM3 (11746129_a_at) / Fold change /veh GSTM3 (11746129_a_at) / RFU IL23R (11737362_x_at) / Fold change /veh IL23R (11737362_x_at) / RFU TMEM51 (11727254_a_at) / Fold change /veh TMEM51 (11727254_a_at) / RFU PIWIL2 (11732686_x_at) / Fold change /veh PIWIL2 (11732686_x_at) / RFU ORM1 (11744905_x_at) / Fold change /veh ORM1 (11744905_x_at) / RFU CCDC152 (11743942_at) / Fold change /veh CCDC152 (11743942_at) / RFU ECM1 (11717891_a_at) / Fold change /veh ECM1 (11717891_a_at) / RFU IL23R (11748794_a_at) / Fold change /veh IL23R (11748794_a_at) / RFU TNFAIP8L3 (11732012_x_at) / Fold change /veh TNFAIP8L3 (11732012_x_at) / RFU MBOAT4 (11741988_at) / Fold change /veh MBOAT4 (11741988_at) / RFU 11764193_at / Fold change /veh 11764193_at / RFU TMEM53 (11763286_at) / Fold change /veh TMEM53 (11763286_at) / RFU MAGEB2 (11727129_at) / Fold change /veh MAGEB2 (11727129_at) / RFU TMEM200A (11744735_a_at) / Fold change /veh TMEM200A (11744735_a_at) / RFU CCDC152 (11751479_a_at) / Fold change /veh CCDC152 (11751479_a_at) / RFU FAM211A (11726209_a_at) / Fold change /veh FAM211A (11726209_a_at) / RFU RGS16 (11746705_a_at) / Fold change /veh RGS16 (11746705_a_at) / RFU VCAN (11755009_s_at) / Fold change /veh VCAN (11755009_s_at) / RFU RHOB (11743442_s_at) / Fold change /veh RHOB (11743442_s_at) / RFU RGS16 (11720943_a_at) / Fold change /veh RGS16 (11720943_a_at) / RFU RGS16 (11720944_at) / Fold change /veh RGS16 (11720944_at) / RFU, VPS4B / Fold change vs veh, VPS4B / RFU, CREB1 / Fold change vs veh, CREB1 / RFU, DNAJC13 / Fold change vs veh, DNAJC13 / RFU, GNAQ / Fold change vs veh, GNAQ / RFU, CDK5R1 / Fold change vs veh, CDK5R1 / RFU, ZRANB3 / Fold change vs veh, ZRANB3 / RFU, CUL4A / Fold change vs veh, CUL4A / RFU, CCNY / Fold change vs veh, CCNY / RFU, UFL1 / Fold change vs veh, UFL1 / RFU, COG3 / Fold change vs veh, COG3 / RFU, DIAPH2 / Fold change vs veh, DIAPH2 / RFU, SKA2 / Fold change vs veh, SKA2 / RFU, AFF3 / Fold change vs veh, AFF3 / RFU, LMF1 / Fold change vs veh, LMF1 / RFU, IPO11 / Fold change vs veh, IPO11 / RFU, DFFB / Fold change vs veh, DFFB / RFU, FOXP1 / Fold change vs veh, FOXP1 / RFU, CARD8 / Fold change vs veh, CARD8 / RFU, STRN3 / Fold change vs veh, STRN3 / RFU, ADK / Fold change vs veh, ADK / RFU, RASSF2 / Fold change vs veh, RASSF2 / RFU, WIPF1 / Fold change vs veh, WIPF1 / RFU, LARP1B / Fold change vs veh, LARP1B / RFU, RASA1 / Fold change vs veh, RASA1 / RFU, RB1 / Fold change vs veh, RB1 / RFU, PPFIA1 / Fold change vs veh, PPFIA1 / RFU, MAT2A / Fold change vs veh, MAT2A / RFU, CCT5 / Fold change vs veh, CCT5 / RFU, WDR92 / Fold change vs veh, WDR92 / RFU, CUX1 / Fold change vs veh, CUX1 / RFU, TTC7A / Fold change vs veh, TTC7A / RFU, TMEM135 / Fold change vs veh, TMEM135 / RFU, DEPTOR / Fold change vs veh, DEPTOR / RFU, CPM / Fold change vs veh, CPM / RFU, DNAJB6 / Fold change vs veh, DNAJB6 / RFU, CACNA2D3 / Fold change vs veh, CACNA2D3 / RFU, DTX4 / Fold change vs veh, DTX4 / RFU, TFCP2 / Fold change vs veh, TFCP2 / RFU, GMCL1 /// GMCL1P1 / Fold change vs veh, GMCL1 /// GMCL1P1 / RFU, AEBP2 / Fold change vs veh, AEBP2 / RFU, SNHG1 /// SNORD22 /// SNORD25 /// SNORD26 /// SNORD27 /// SNORD28 /// SNORD29 /// SNORD31 / Fold change vs veh, SNHG1 /// SNORD22 /// SNORD25 /// SNORD26 /// SNORD27 /// SNORD28 /// SNORD29 /// SNORD31 / Fold change (Aza/veh), C12orf56 (ProbeSet 11735607_a_at) / Fold change (ACY-1035/veh), C12orf56 (ProbeSet 11735607_a_at) / Fold change (Aza/veh), FGFR1OP (ProbeSet 11751329_s_at) / Fold change (ACY-1035/veh), FGFR1OP (ProbeSet 11751329_s_at) / Fold change (Aza/veh), VPS36 (ProbeSet 11739960_a_at) / Fold change (ACY-1035/veh), VPS36 (ProbeSet 11739960_a_at) / RFU SYPL1 (11715823_x_at) / Fold change /veh SYPL1 (11715823_x_at) / RFU IGFBP7 (11715501_s_at) / Fold change /veh IGFBP7 (11715501_s_at) / RFU REEP3 (11722064_at) / Fold change /veh REEP3 (11722064_at) / RFU IGLL1 (11728026_x_at) / Fold change /veh IGLL1 (11728026_x_at): dose or concentration left out as unconfirmed. The format is cell-based, human.

SMILES strings stand for the structures.

With `Nc1ncn([C@@H]2O[C@H](CO)[C@@H](O)[C@H]2O)c(=O)n1` [azacitidine], the “Fold change /veh LOC730098 (11760151_x_at)” value is 1.03.
